According to patent US8680253B2 (OliPass Corporation, priority 2008, dated 2014):
Values joined by “and” are separate entries in the source; they are usually repeats but may differ in a detail not shown here. Equal values may be shown once. {Fam-L(2)} = N-terminal fluorescein (Fam) label attached through linker L(2); {L(1)} = linker L(1) as defined below the publication's; {Fam} = fluorescein (FAM) label at the N-terminus; {Lys-NH2} = C-terminal lysine amide

Tests used:
complementary DNA = assay: Binding affinity for DNA: Tm between PNA and complementary DNA (UV absorbance at 260 nm); settings: 4 μM PNA oligomer and 4 μM DNA, aq buffer pH 7.16, 10 mM sodium phosphate, 100 mM NaCl
Method: (§1) PNA oligomers of this invention were evaluated for their binding affinity for DNA by measuring Tm values as follows.
(§2) 4 μM PNA oligomer and 4 μM DNA were mixed in aq buffer (pH 7.16, 10 mM sodium phosphate, 100 mM NaCl), and incubated at 90° C. for a few minutes and slowly cooled down to RT. Then the solution was transferred into a 4 ml quartz cuvette and the cuvette was tightly sealed. The cuvette was mounted on an Agilent 8453 UV/Visible spectrophotometer and absorbance changes at 260 nm were recorded with increasing the temperature of the cuvette by either 0.5 or 1.0° C. per minute. From the absorbance vs temperature curve, the temperature showing the largest increase rate in absorbance was read out as the melting temperature Tm between PNA and DNA. DNAs for Tm measurement were purchased either from Bioneer, Inc. (www.bioneer.com, Daejon, South Korea) or from Ahram Biosystems (www.ahrambio.com, Seoul, South Korea), and used without further purification.
(§3) FIG. 3 provides graphs of absorbance changes with temperature for Oligo 17 against complementary or mismatch DNA. For sequences of the mismatch DNAs against Oligo 17, refer to Table 2. In FIG. 3, there is a transition temperature in each curve, which was read out as the Tm value for the curve.
(§4) Tm values are provided in Table 2 for PNA oligomers of this invention. These Tm values are presented for illustrative purposes only and should not be interpreted as a restriction to this invention.

mdm2 = assay: Antisense example: inhibition of ribosomal synthesis of mdm2 in JAR cells, western blotting; format: cell-based, human; settings: 15 h
Method: The following antisense example is presented for illustrative purposes only and should not be interpreted as a restriction to the present invention.
JAR cells (ATCC catalog #HTB-144) were grown in RPMI-1640 medium supplemented with 10% FBS and 1% penicillin-streptomycin at 37° C. and 5% CO2. Cells were then seeded into each well of a 12-well plate containing 1 ml of the same medium, and treated with an aliquot of an aqueous stock solution of Oligo 9 or […] of a designated concentration. Then the cells were incubated at 37° C. and 5% CO2 for 15 h.
The cells in each well were washed with cold PBS and treated with 80 μl RIPA buffer containing 1% protease inhibitors cocktail, and the plate was incubated at 4° C. and agitated slowly for 15 min. The content of each well was scraped out into a microtube. The microtube was incubated in ice for 10 min and centrifuged at 10,000 g. The resulting supernatant was collected and subjected to protein quantification by Bradford assay and western blot analysis. For electrophoresis, 20 μg of protein was loaded onto each lane of the gel in a minigel apparatus, separated and transferred onto a PVDF membrane (0.45μ, Millipore). The primary mdm2 antibody used for western blotting was SC-965 (Santa Cruz Biotechnology).
FIG. 9 provides western blotting results for JAR cells treated with 5 μM or 10 μM Oligo 9, 5 μM or 10 μM Oligo 10, cotreatment with the oligomers at 5 μM or 10 μM each, and blank (no oligomer treatment).

HeLa cells = assay: Cell penetration of fluorescein-tagged PNA oligomers, confocal fluorescence microscopy; format: cell-based, human
Method: (§5) In order to evaluate the cell penetration ability of PNA oligomers of this invention, cancer cells of human origin were treated with PNA oligomers covalently tagged with fluorescein. The applied method is provided in brief as follows.
(§6) To each cover glass (autoclaved) placed in each well of a 24-well plate, were seeded 20,000˜100,000 cells depending on the growth rate of the cell line used, and the cells were cultured at 37° C. and 5% CO2 for 16 to 24 h. Then the medium was replaced with 500 μl fresh Opti-MEM medium (with or without 1% FBS), to which was added an aliquot of aq stock solution of a PNA oligomer covalently tagged with fluorescein. After cells were cultured for a designated interval, the cells were washed with PBS, and fixed by incubating in 3.7% or 4% paraformaldehyde. The cells were thoroughly washed several times with PBS or PBS containing 0.1% Tween-20. Then the cover glass was mounted onto a slide glass using a drop of mounting solution and sealed with nail polish for confocal fluorescence microscopy. Fluorescence images were taken either on a Zeiss LSM 510 confocal microscope (Germany) at 63× objective or on a Nikon C1Si confocal microscope at 40× objective.

JAR cells = assay: as above; format: cell-based, human; settings: 2 μM, 24 h, without FBS, 40× objective
Method: as §5, §6

A549 cells = assay: as above; format: cell-based, human; settings: 2 μM, 24 h, without FBS, 40× objective
Method: as §5, §6

mismatch DNA = assay: Binding affinity for DNA: Tm between PNA and mismatch DNA (UV absorbance at 260 nm); settings: for decreases in Tm with single base mismatches: single base mismatch versus complementary DNA
Method: as §1, §2, §3, §4

[1] = 5 μM, 1, 2, 3 and 24 h, without FBS, 63× objective

## TGC-TAC-TAC-TG-Lys-NH2 (TGCTACTACTG; all peptide nucleic acid (PNA), 3' {Lys-NH2}) [Oligo 5, unmodified PNA oligomer, reference compound]
Complementary DNA
  Tm between PNA and complementary DNA: 55 °C

## CA(7)T-A(7)GT-A(7)TA-A(7)GT-NH2 (CATAGTATAAGT; chemistry not fully specified) [Oligo 15, modified PNA oligomer]
Complementary DNA
  Tm between PNA and complementary DNA: 71 °C

## GC(2O2)A-C(2O2)AT-TTG-C(2O2)CT-NH2 (GCACATTTGCCT; chemistry not fully specified) [Oligo 9]
mdm2; 5 μM
  inhibition of ribosomal synthesis of mdm2: significantly inhibited
mdm2; 10 μM
  inhibition of ribosomal synthesis of mdm2: significantly inhibited

## CAT-AGT-ATA-AGT-NH2 (CATAGTATAAGT; chemistry not fully specified) [Oligo 27, unmodified PNA oligomer, reference compound]
Complementary DNA
  Tm between PNA and complementary DNA: 55 °C

## TGC(1O3)-TAC-TAC(1O3)-TG-Lys-NH2 (TGCTACTACTG; modified PNA, C-terminal Lys-NH2, chemistry not fully specified) [Oligo 3, modified PNA oligomer]
Complementary DNA
  Tm between PNA and complementary DNA: 65 °C

## CA(4)T-A(4)GT-A(4)TA-A(4)GT-NH2 (CATAGTATAAGT; PNA-like chain with modified monomers A(5)/A(4), C-terminal amide, codes undefined, further chemistry not given here) [Oligo 13, modified PNA oligomer]
Complementary DNA
  Tm between PNA and complementary DNA: 64 °C

## Fam-L(2)-TT-C(1O2)AT-A(5)GT-A(5)TA-AG(5)T-Lys-NH2 (TTCATAGTATAAGT; Fam-L(2) label, modified PNA, Lys-NH2, chemistry not fully specified) [Oligo 22, fluorescein-tagged modified PNA oligomer]
HeLa cells; 2 μM, 24 h, without FBS, 40× objective
  cell penetration, fluorescence intensity: good cell penetration
JAR cells
  cell penetration, fluorescence intensity: good cell penetration
A549 cells
  cell penetration, fluorescence intensity: good cell penetration

## TGC(2O2)-TAC-TAC(2O2)-TG-Lys-NH2 (TGCTACTACTG; modified PNA, monomer codes such as C(1O3), A(5) undefined, C-terminal Lys-NH2, further chemistry not given here) [Oligo 8, modified PNA oligomer]
Complementary DNA
  Tm between PNA and complementary DNA: 68 °C

## CA(3)T-A(3)GT-A(3)TA-A(3)GT-NH2 (CATAGTATAAGT; chemistry not fully specified) [Oligo 12]
Complementary DNA
  Tm between PNA and complementary DNA: 60 °C

## CA(5)T-A(5)GT-A(5)TA-A(5)GT-Lys-NH2 (CATAGTATAAGT; modified PNA, C-terminal Lys-NH2, chemistry not fully specified) [Oligo 17, modified PNA oligomer]
Complementary DNA
  Tm between PNA and complementary DNA: 72 °C
Mismatch DNA; mismatch (T → A), DNA ACT-TAA-ACT-ATG
  Tm between PNA and mismatch DNA: 59 °C
Mismatch DNA; mismatch (T → C), DNA ACT-TAC-ACT-ATG
  Tm between PNA and mismatch DNA: 61 °C
Mismatch DNA; mismatch (T → G), DNA ACT-TAG-ACT-ATG
  Tm between PNA and mismatch DNA: 58 °C
Mismatch DNA
  decreases in Tm with single base mismatches: 11˜14 °C

## CA(2O2)T-A(2O2)GT-A(2O2)TA-A(2O2)GT-NH2 (CATAGTATAAGT; chemistry not fully specified) [Oligo 18, modified PNA oligomer]
Complementary DNA
  Tm between PNA and complementary DNA: 66 °C

## TG(5)G-C(1O2)AA-C(1O2)TG-A(5)T-Lys-NH2 (TGGCAACTGAT; modified PNA, C-terminal Lys-NH2, chemistry not fully specified) [Oligo 20, modified PNA oligomer]
Complementary DNA
  Tm between PNA and complementary DNA: 84 °C
Mismatch DNA; mismatch (G → A), DNA ATC-AAT-TGC-CA
  Tm between PNA and mismatch DNA: 65 °C
Mismatch DNA; mismatch (G → T), DNA ATC-ATT-TGC-CA
  Tm between PNA and mismatch DNA: 62 °C
Mismatch DNA
  decreases in Tm with single base mismatches: 19˜22 °C

## CA(5)T-A(5)GT-A(5)TA-A(5)GT-NH2 (CATAGTATAAGT; chemistry not fully specified) [Oligo 14, modified PNA oligomer]
Complementary DNA
  Tm between PNA and complementary DNA: 69 °C

## TGC-TAC(1O3)-TAC-TG-Lys-NH2 (TGCTACTACTG; modified PNA, monomer codes such as C(1O3), A(5) undefined, C-terminal Lys-NH2, further chemistry not given here) [Oligo 4, modified PNA oligomer]
Complementary DNA
  Tm between PNA and complementary DNA: 61 °C

## CAT-AGT-ATA-AGT-Lys-NH2 (CATAGTATAAGT; all peptide nucleic acid (PNA), 3' {Lys-NH2}) [Oligo 16, unmodified PNA oligomer, reference compound]
Complementary DNA
  Tm between PNA and complementary DNA: 56 °C

## Fam-L(2)-TGG-CAA-CTG-AT-Lys-NH2 (TGGCAACTGAT; all peptide nucleic acid (PNA), 5' {Fam-L(2)}, 3' {Lys-NH2}) [Oligo 28, fluorescein-tagged 'unmodified' PNA oligomer, reference compound]
HeLa cells; 2 μM, 12 h, without FBS, 40× objective
  cell penetration, fluorescence intensity: no significant fluorescence intensity
JAR cells
  cell penetration, fluorescence intensity: no significant fluorescence intensity
A549 cells
  cell penetration, fluorescence intensity: no significant fluorescence intensity

## Fam-L(2)-CA(5)T-A(4g)GT-A(4g)TA(5)-AGT-Lys-NH2 (CATAGTATAAGT; Fam-L(2) label, modified PNA, Lys-NH2, chemistry not fully specified) [Oligo 24, fluorescein-tagged modified PNA oligomer]
Complementary DNA
  Tm between PNA and complementary DNA: 70 °C

## GC(1O2)A-C(1O2)AT-TTG-C(1O2)CT-NH2 (GCACATTTGCCT; chemistry not fully specified) [Oligo 10, modified PNA oligomer]
mdm2; 5 μM
  inhibition of ribosomal synthesis of mdm2: significantly inhibited
mdm2; 10 μM
  inhibition of ribosomal synthesis of mdm2: significantly inhibited

## GCA-CAT-TTG-CCT-Lys-NH2 (GCACATTTGCCT; all peptide nucleic acid (PNA), 3' {Lys-NH2}) [Oligo 11, unmodified PNA oligomer, reference compound]
Complementary DNA
  Tm between PNA and complementary DNA: 58 °C and 59 °C

## Fam-L(1)L(1)-TGC(1O3)-TAC(1O3)-TAC(1O3)-TG-Lys-NH2 (TGCTACTACTG; Fam-L(1)L(1) N-term, Lys-NH2, modified PNA, chemistry not fully specified) [Oligo 1, fluorescein-tagged modified PNA oligomer]
HeLa cells; 1 μM, 6 or 24 h, with 1% FBS, 40× objective
  cell penetration, fluorescence intensity: fluorescence intensity is faint even at 24 h
HeLa cells; [1]
  cell penetration, fluorescence intensity: fluorescence intensity is clear and becomes intense over 24 h

## Fam-L(1)L(1)-TGC-TAC-TAC-TG-Lys-NH2 (TGCTACTACTG; all peptide nucleic acid (PNA), 5' {Fam}-{L(1)}-{L(1)}, 3' {Lys-NH2}) [Oligo 2, fluorescein-tagged 'unmodified' PNA oligomer, reference compound]
HeLa cells; [1]
  cell penetration, fluorescence intensity: fluorescence intensity is faint
